Results: patent US20250084074A1, “SUBSTITUTED HETEROCYCLES AS HSET INHIBITORS” (MERCK PATENT GMBH, priority 2022, published 2025)

What follows are molecules tested against HSET full length protein (Homo sapiens (Human), UniProt Q9BW19) (assay: HSET ADP-Glo Assay S - 3 μM ATP). Settings: 5 nM HSET, 70 μg/mL microtubule, 80 min at rt, read-out: COMBINED HSET ADP GLO IC50.
Chain of HSET full length protein (Q9BW19 whole entry): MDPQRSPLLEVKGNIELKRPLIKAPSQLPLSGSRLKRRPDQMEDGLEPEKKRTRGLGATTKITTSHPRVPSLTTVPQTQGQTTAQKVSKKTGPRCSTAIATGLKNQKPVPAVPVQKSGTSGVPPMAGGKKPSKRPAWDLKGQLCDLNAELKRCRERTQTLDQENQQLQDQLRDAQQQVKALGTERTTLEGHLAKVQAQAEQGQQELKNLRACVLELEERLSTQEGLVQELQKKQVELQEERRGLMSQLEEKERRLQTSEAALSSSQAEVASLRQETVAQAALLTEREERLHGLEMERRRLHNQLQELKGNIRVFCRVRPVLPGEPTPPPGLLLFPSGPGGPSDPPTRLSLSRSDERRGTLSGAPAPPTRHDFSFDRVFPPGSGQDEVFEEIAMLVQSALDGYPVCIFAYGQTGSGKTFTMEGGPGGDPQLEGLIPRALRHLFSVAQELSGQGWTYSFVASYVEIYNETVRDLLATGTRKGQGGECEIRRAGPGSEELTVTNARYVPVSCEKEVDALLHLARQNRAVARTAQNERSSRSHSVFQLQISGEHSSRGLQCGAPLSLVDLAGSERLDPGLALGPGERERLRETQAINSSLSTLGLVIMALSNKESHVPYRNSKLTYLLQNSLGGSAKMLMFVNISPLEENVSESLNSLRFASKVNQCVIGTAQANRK
Format: biochemical
Protocol: Example 281: Testing compounds of the present invention for inhibitory activities against HSET—HSET ADP-Glo Assay S—3 μM ATP
Reagents: (+4° C. Storage) • Paclitaxel Prod.No.TXD.01 2 mM in DMSO (from Universal Biologicals Cambridge). • Tubulin Protein (Pre-formed Microtubules): Bovine Brain Prod.No.MT001-XL Lot.025 10 mg/mL (from Universal Biologicals Cambridge).
Reagents: (−80° C. Storage) • MT001-XL—Tubulin Protein (Pre-formed Microtubules): Bovine Brain—reconstituted in buffer—15 mM PIPES pH7, 1 mM MgCl2, 20 μM paclitaxel (aliquots at 10 mg/mL) from Universal Biologicals Cambridge. • HSET full length protein—Current batch is FL HSET Prep1 (SEQ-000096_002-01_01) • Buffer is 20 mM Hepes pH 7.5, 200 mM NaCl, 2 mM TCEP, 5% glycerol (5 μL aliquots at 10.2 μM)
Reagents: (−20° C. Storage) • ADP-Glo Kinase Assay kit (Promega Prod.No.V9102) 10,000 assay points • ADP-Glo reagent (50 mL), Kinase Detection Reagent (100 mL), and Ultrapure ATP (10 mM) aliquoted
Buffer Stocks (filtered and stored at rt for up to 1 month) • HEPES acid, 4-(2-Hydroxyethyl)piperazine-1-ethanesulfonic acid MW:238, 238.3 mg/mL=1 M • 7149 mg/30 mL=1M (pH to 6.8 with 5 M NaOH) • PIPES, 1,4-Piperazinediethanesulfonic acid MW: 302.4, 30.24 mg/mL=100 mM; 907.2 mg/30 mL=100 mM (pH to 7 with 5 M NaOH, white cloudy suspension until the pH changes) • EGTA, Ethylene glycol-bis(2-aminoethylether)-N,N,N′,N′-tetraacetic acid MW: 380.35, 38.035 mg/mL=100 mM • 1901.75 mg/50 mL=100 mM (pH to ˜7 with 5 M NaOH)—takes a long time to get into solution and for pH to stabilize • Triton-X-100, MW: 625, 62.5 mg/mL=100 mM (6.25% w/v) (viscous, pipette Triton X-100 with a Gilson using a trimmed pipette tip)
ECHO Protocol • Create an ECHO intermediate plate by adding 24.5 μL DMSO to columns 1 & 2, and 40 μL DMSO to columns 23 & 24 of an ECHO 384PP plate • Add 100 nL of compound/DMSO per well in 384-well Proxi-Plate Plus (white) —Perkin Elmer Cat #6008289 using ECHO dose response protocol 100 nL normal to proxi_8pt_200 uM.
Assay buffer (Keep on ice): HEPES pH 6.8, MgCl2, EGTA, Triton X-100, DTT, HPLC H2O Microtubule Working Solution (3.2): • 1 ml PM buffer: PIPES pH 7.0, MgCl2, HPLC H2O, Paclitaxel, mix well, store at rt • Then add 26.4 μL of 10 mg/ml microtubules to 724 μL of the above PM buffer to make 750 μL of microtubule working solution @350 μg/mL microtubules (store at rt)
Stock HSET enzyme solution (3.1)—keep on ice • Add 1.33 μL 10.2 μM HSET Prepi (SEQ-000096_002-01_01) to 1358 μL assay buffer to make a 10 nM stock for a 5 nM final assay concentration (1/1020 dilution).
HSET/Microtubule working solution (3.3) • Mix solutions 3.1 and 3.2 in the ratio of 2.5:1 (1214.3 μL 3.1+485.7 μL 3.2) keep at rt for 15 min • 3.2 is diluted 3.5-fold, 3.1 is diluted 1.4-fold BLANK solution is 357 μL 2XAB+143 μL microtubule working solution 3.2. (Same proportions as HSET/Microtubule working solution (3.3))
ATP Working solution is 1 μL 10 mM UltraPure ATP (Promega kit)+999 μL ddH20 gives 10 μM ATP for a 3 μM final assay concentration, stored on ice.
Assay procedure in PROXIPLATE 384 PLUS WHITE (Perkin Elmer) plates (Remove 2.4 mL ADP Glo and 4.5 mL Kinase detection reagent from freezer to warm up to rt) • Add 3.5 μL BLANK solution to assay plate (column 12) • Add 3.5 μL HSET/Microtubule solution (3.3) (columns 1-11 & 13-24) • Centrifuge at 1000 rpm for 1 min • (pre-incubate enzyme and compound for 10 min)
Add 1.5 μL of 10 μM ATP to start reaction gives a final [HSET] of 5 nM, [ATP] of 3 μM and [microtubule] of 70 μg/mL, centrifuge at 1000 rpm for 1 min and incubated at rt for 80 min.
After the 80-minute incubation, stop reaction by adding 5 μL ADP-Glo reagent to all wells. Centrifuge for 1 min at 1000 rpm, leave for 40 min at rt.
In the dark/away from direct light, add 10 μL Kinase Detection Reagent (KDR) to all wells, Seal plate with a Topseal (Perkin Elmer Cat #6050185) and centrifuge as above, leave for 40 min at rt covered in foil. […]
In the case of `CCOC(=O)c1sc(NC(=O)CCNC(=O)c2cccc(-c3noc(C)n3)c2)nc1C(C)C` [Example 88, Ethyl 4-isopropyl-2-[3-[[3-(5-methyl-1,2,4-oxadiazol-3-yl)benzoyl]amino]propanoylamino]thiazole-5-carboxylate], the IC50 is reported as 477 nM.
Molecule `Cc1nc(-c2cccc(C(=O)N[C@@H](CC#N)CC(=O)Nc3nc(C)c(C(=O)OC(C)C)s3)c2)no1` [Example 195, Propan-2-yl 2-[(3S)-4-cyano-3-{[3-(5-methyl-1,2,4-oxadiazol-3-yl)phenyl]form-amido}butanamido]-4-methyl-1,3-thiazole-5-carboxylate] has an IC50 of 12 nM.
Molecule `CCCCCCOC(=O)c1sc(NC(=O)CCNC(=O)c2cccc(-c3noc(C)n3)c2)nc1C` [Example 123, Hexyl-4-methyl-2-(3-(3-(5-methyl-1,2,4-oxadiazol-3-yl)benzamido)propanamido)thiazole-5-carboxylate] has an IC50 of 9 nM.
Work on `CCCOC(=O)c1sc(NC(=O)C[C@H](CCCN)NC(=O)c2cccc(-c3noc(C)n3)c2)nc1C` [Example 151, Popyl-(S)-2-(6-amino-3-(3-(5-methyl-1,2,4-oxadiazol-3-yl)benzamido)hexanamido)-4-methylthiazole-5-carboxylate] yielded an IC50 of 13 nM.
Work on `CCOC(=O)c1sc(NC(=O)CCNC(=O)c2cc(OC)cc(C(=O)OC)c2)nc1C` [Example 16, Ethyl 2-[3-[(3-methoxy-5-methoxycarbonyl-benzoyl)amino]propanoylamino]-4-methyl-thiazole-5-carboxylate] yielded an IC50 of 301 nM.
`Cc1nc(-c2ccc3ccnc(N[C@H]4C[C@@](F)(C(=O)Nc5nc(C)c(C(=O)OC(C)(C)C)s5)C4)c3c2)no1` [Example 222, tert-butyl 2-((1 r,3r)-1-fluoro-3-((7-(5-methyl-1,2,4-oxadiazol-3-yl)isoquinolin-1-yl)amino)cyclobutane-1-carboxamido)-4-methylthiazole-5-carboxylate] gave an IC50 of 10 nM.
Molecule `Cc1nc(NC(=O)[C@H]2C[C@@H](NC(=O)c3cccc(-c4nnn(C)n4)c3)C2)sc1C(=O)OC(C)(C)C` [Example 107, tert-Butyl-4-methyl-2-((1s,3s)-3-(3-(2-methyl-2H-tetrazol-5-yl)benzamido)cyclobutane-1-carboxamido)thiazole-5-carboxylate] has an IC50 of 41 nM.
`Cc1nc(NC(=O)C[C@H](CC#N)NC(=O)c2cccc(-c3cnn(C)c3)c2)sc1C(=O)OC(C)C` [Example 203] gave an IC50 of 1100 nM.
`Cc1nc(-c2ccc3ccnc(N[C@H]4C[C@@H](C(=O)Nc5nc(Cl)c(C(=O)OC(C)(C)C)s5)C4)c3c2)no1` [Example 112, tert-Butyl 4-chloro-2-[[3-[[7-(5-methyl-1,2,4-oxadiazol-3-yl)-1-isoquinolyl]amino]cyclobutanecarbonyl]amino]thiazole-5-carboxylate] showed an IC50 of 54 nM.
`Cc1nc(-c2ccc3ccnc(N[C@H]4C[C@](F)(C(=O)Nc5nc(C)c(C(=O)OC(C)(C)C)s5)C4)c3c2)no1` [Example 223, tert-Butyl 2-((1s,3s)-1-fluoro-3-((7-(5-methyl-1,2,4-oxadiazol-3-yl)isoquinolin-1-yl)amino)cyclobutane-1-carboxamido)-4-methylthiazole-5-carboxylate] was tested, and the IC50 was 219 nM.
Work on `Cc1nc(-c2ccc3ccnc(N[C@H]4CCN(C(=O)c5cc(C6CC6)n(C)n5)C4)c3c2)no1` [Example 247, (S)-(5-cyclopropyl-1-methyl-1 H-pyrazol-3-yl)(3-((7-(5-methyl-1,2,4-oxadiazol-3-yl)isoquinolin-1-yl)amino)pyrrolidin-1-yl)methanone] yielded an IC50 of 13600 nM.
`Cc1nc(-c2ccc3ccnc(N[C@H]4CCN(C(=O)c5cnn(C(C)(C)C)c5)C4)c3c2)no1` [Example 252, (1-tert-Butylpyrazol-4-yl)-[(3S)-3-[[7-(5-methyl-1,2,4-oxadiazol-3-yl)-1-isoquinolyl]amino]pyrrolidin-1-yl]methanone] gave an IC50 of 16400 nM.
`Cc1nc(-c2ccc3ccnc(NCCC(=O)Nc4ncc(C#N)s4)c3c2)no1` [Example 55] showed an IC50 of 1130 nM.
Molecule `CCOC(=O)c1sc(NC(=O)CCNC(=O)c2cc(C#N)cc(C(=O)OC)c2)nc1C` [Example 17, Ethyl 2-[3-[(3-cyano-5-methoxycarbonyl-benzoyl)amino]propanoylamino]-4-methyl-thiazole-5-carboxylate] has an IC50 of 869 nM.
In the case of `CCCCCc1cc(NC(=O)[C@H]2C[C@@H](Nc3nccc4ccc(-c5noc(C)n5)cc34)C2)nn1C` [Example 101, (1s,3s)-3-((7-(5-methyl-1,2,4-oxadiazol-3-yl)isoquinolin-1-yl)amino)-N-(1-methyl-5-pentyl-1 H-pyrazol-3-yl)cyclobutane-1-carboxamide], the IC50 is reported as 276 nM.
Work on `CCCC(C)c1sc(NC(=O)CCNC(=O)c2cccc(-c3noc(C)n3)c2)nc1C` (stereo not shown) [Example 129, 3-(5-methyl-1,2,4-oxadiazol-3-yl)-N-(3-((4-methyl-5-(pentan-2-yl)thiazol-2-yl)amino)-3-oxopropyl)benzamide] yielded an IC50 of 1130 nM.
`Cc1nnn(-c2cccc(C(=O)NCCC(=O)Nc3nc(C)c(C(C)(C)C)s3)c2)n1` [Example 59, N-(3-((5-(tert-butyl)-4-methylthiazol-2-yl)amino)-3-oxopropyl)-3-(5-methyl-2H-tetrazol-2-yl)benzamide] showed an IC50 of 278 nM.
`Cc1nc(-c2ccc3ccnc(NC[C@@H](O)C(=O)Nc4nc(C)c(CC(C)C)s4)c3c2)no1` [Example 191, (R)-2-hydroxy-N-(5-isobutyl-4-methylthiazol-2-yl)-3-((7-(5-methyl-1,2,4-oxadiazol-3-yl)isoquinolin-1-yl)amino)propenamide] gave an IC50 of 284 nM.
Molecule `Cc1nc(NC(=O)[C@@H](O)CNC(=O)c2cccc(-c3cnn(C)c3)c2)cn1C(=O)OC(C)C` [Example 269] has an IC50 of 910 nM.
`CCOC(=O)c1sc(NCCCNC(=O)c2cccc(-c3noc(C)n3)c2)nc1C` [Example 21, Ethyl 4-methyl-2-[3-[[3-(5-methyl-1,2,4-oxadiazol-3-yl)benzoyl]amino]-propylamino]thiazole-5-carboxylate] showed an IC50 of 17100 nM.
`CCCOC(=O)c1sc(C(=O)N2C[C@@H](F)[C@H](Nc3nccc4ccc(-c5noc(C)n5)cc34)C2)nc1C` [Example 256, propyl 2-((3R,4R)-3-fluoro-4-((7-(5-methyl-1,2,4-oxadiazol-3-yl)isoquinolin-1-yl)amino)pyrrolidine-1-carbonyl)-4-methylthiazole-5-carboxylate] gave an IC50 of 20 nM.
`Cc1nc(-c2cccc(C(=O)NCCC(=O)Nc3nc(C)c(C(=O)OC4CCCC4)s3)c2)no1` [Example 122, Cyclopentyl-4-methyl-2-(3-(3-(5-methyl-1,2,4-oxadiazol-3-yl)benzamido)propanamido)thiazole-5-carboxylate] showed an IC50 of 27 nM.
